From ChEMBL document CHEMBL1141685, “Hexahydro-pyrrolo- and hexahydro-1H-pyrido[1,2-b]pyridazin-2-ones as potent inhibitors of HCV NS5B polymerase” (Bioorg Med Chem Lett, 2008)

Key:
Hepatitis C virus [1] = assay: Inhibition of HCV 1b NS5B polymerase by microbeta scintillation counter; set-up: species or system Hepatitis C virus subtype 1b
Hepatitis C virus [2] = assay: Antiviral activity against HCV 1b infected in human Huh7/C24 cells after 72 hrs by replicon assay; type: functional, organism-based, Hepacivirus hominis; details: genotype 1b, Huh-7, 72 h
[3] = Cytotoxicity against human Huh7/C24 cells after 72 hrs […]; type: cell-based, Huh-7
[4] = Metabolic stability in human liver microsomes at 1 uM
[5] = Metabolic stability in human liver microsomes assessed as compound remaining at 1 uM after 60 mins; type: ADME, Microsome; details: read-out: Stability
[6] = Metabolic stability in cynomolgus monkey liver microsomes at 1 uM
[7] = Metabolic stability in cynomolgus monkey liver microsomes assessed as compound remaining at 1 uM after 60 mins; type: ADME, Macaca fascicularis, Microsome; details: read-out: Stability
[8] = Apparent permeability from apical to basolateral side in human Caco-2 cell membrane at 10 uM
[9] = Oral bioavailability in cynomolgus monkey at 1 mg/kg; type: ADME, organism-based, Macaca fascicularis; details: in vivo
Cynomolgus monkey [10] = assay: AUC (0 to infinity) in cynomolgus monkey at 1 mg/kg, po; type: ADME, organism-based, Macaca fascicularis, Plasma; set-up: time infinity, dose 1 mg/kg, route oral; details: in vivo
Cynomolgus monkey [11] = assay: Hepatic blood flow in cynomolgus monkey; type: ADME, organism-based, Macaca fascicularis, Liver
[12] = Fabs in cynomolgus monkey; type: ADME, organism-based, Macaca fascicularis; details: in vivo, read-out: Fabs
Cynomolgus monkey [13] = assay: AUC (0 to infinity) in cynomolgus monkey at 1 mg/kg, iv; type: ADME, organism-based, Macaca fascicularis, Plasma; set-up: time infinity, dose 1 mg/kg, route intravenous; details: in vivo

Molecule `CS(=O)(=O)Nc1ccc2c(c1)S(=O)(=O)N=C(c1c(O)c3cccn3n(Cc3ccc(F)cc3)c1=O)N2` has an IC50 (Hepatitis C virus [1]) of under 10 nM, an EC50 (Hepatitis C virus [2]) of 12 nM and a CC50 at 72 h [3] of over 1000 nM. For the same molecule, the half-life at 1 µM ([4]; liver microsomes) was over 60 min, the remaining at 1 h, 1 µM [5] was 86% and the half-life at 1 µM ([6]; liver microsomes) was over 60 min.

Work on `CS(=O)(=O)Nc1ccc2c(c1)S(=O)(=O)N=C(C1=C(O)C3CCCCN3N(Cc3ccc(F)cc3)C1=O)N2` (configuration not stated) yielded an IC50 (Hepatitis C virus [1]) of 16 nM, an EC50 (Hepatitis C virus [2]) of 300 nM and a CC50 at 72 h [3] of over 1000 nM. It also gave a half-life at 1 µM ([4]; microsomes) of over 60 min, a remaining at 1 h, 1 µM [5] of 102% and a half-life at 1 µM ([6]; microsomes) of over 60 min. It also gave a remaining at 1 h, 1 µM [7] of 100% and a Papp A→B at 10 µM [8] of 0.1 ×10⁻⁶ cm/s.

`CN(c1ccc2c(c1)S(=O)(=O)N=C(C1=C(O)C3CCCN3N(CCC(C)(C)C)C1=O)N2)S(C)(=O)=O` (configuration not stated) gave an IC50 (Hepatitis C virus [1]) of 160 nM, an EC50 (Hepatitis C virus [2]) of 3600 nM and a CC50 at 72 h [3] of over 33000 nM. For the same molecule, the half-life at 1 µM ([4]; liver microsomes) was over 60 min and the half-life at 1 µM ([6]; liver microsomes) was 17 min.

For `CC(C)(C)CCN1C(=O)C(C2=NS(=O)(=O)c3cc(NS(C)(=O)=O)ccc3N2)=C(O)C2(C)CCCN12` (configuration not stated), the IC50 (Hepatitis C virus [1]) was 180 nM, the EC50 (Hepatitis C virus [2]) was 1100 nM and the CC50 at 72 h [3] was over 33000 nM. It also gave a half-life at 1 µM ([4]; liver microsomes) of 4.9 min, a half-life at 1 µM ([6]; liver microsomes) of 10 min and a Papp A→B at 10 µM [8] of 0.6 ×10⁻⁶ cm/s.

`CC(C)(C)CCN1C(=O)C(C2=NS(=O)(=O)c3cc(NS(C)(=O)=O)ccc3N2)=C(O)C2CCCCN21` (configuration not stated) gave an IC50 (Hepatitis C virus [1]) of 41 nM, an EC50 (Hepatitis C virus [2]) of 110 nM and a CC50 at 72 h [3] of over 33000 nM. It also gave a half-life at 1 µM ([4]; liver microsomes) of 52 min, a half-life at 1 µM ([6]; liver microsomes) of 18 min and a Papp A→B at 10 µM [8] of 0.31 ×10⁻⁶ cm/s.

For `CS(=O)(=O)Nc1ccc2c(c1)S(=O)(=O)N=C(C1=C(O)C3CCCN3N(Cc3ccc(F)cc3)C1=O)N2` (configuration not stated), the IC50 (Hepatitis C virus [1]) was under 10 nM, the EC50 (Hepatitis C virus [2]) was 190 nM and the CC50 at 72 h [3] was over 1000 nM. For the same molecule, the half-life at 1 µM ([4]; liver microsomes) was over 60 min, the remaining at 1 h, 1 µM [5] was 87% and the half-life at 1 µM ([6]; liver microsomes) was over 60 min. The remaining at 1 h, 1 µM [7] was 94% and the Papp A→B at 10 µM [8] was 0.2 ×10⁻⁶ cm/s.

`CC(C)(C)CCN1C(=O)C(C2=NS(=O)(=O)c3cc(NS(C)(=O)=O)ccc3N2)=C(O)C2CCCN21` (configuration not stated) gave an IC50 (Hepatitis C virus [1]) of under 10 nM, an EC50 (Hepatitis C virus [2]) of 34 nM and a CC50 at 72 h [3] of over 1000 nM. It also gave a half-life at 1 µM ([4]; microsomes) of 59 min, a half-life at 1 µM ([6]; microsomes) of 7.5 min and a Papp A→B at 10 µM [8] of 0.44 ×10⁻⁶ cm/s. It also gave a bioavailability [9] of 7%, an AUC (Cynomolgus monkey [10]) of 344 ng·h/mL and a QH (Cynomolgus monkey [11]) of 44 mL/min/kg. For the same molecule, the Fa [12] was 8% and the AUC (Cynomolgus monkey [13]) was 5180 ng·h/mL.

In the case of `CC(C)CCN1C(=O)C(C2=NS(=O)(=O)c3cc(NS(C)(=O)=O)ccc3N2)=C(O)C2CCCN21` (configuration not stated), the IC50 (Hepatitis C virus [1]) is reported as 12 nM, the EC50 (Hepatitis C virus [2]) is reported as 160 nM and the CC50 at 72 h [3] is reported as over 1000 nM. It also gave a half-life at 1 µM ([4]; microsomes) of over 60 min, a remaining at 1 h, 1 µM [5] of 65% and a half-life at 1 µM ([6]; microsomes) of 63 min. It also gave a Papp A→B at 10 µM [8] of 0.2 ×10⁻⁶ cm/s.
